Assay results: patent US9550811B2, “Peptide scaffold design” (BIONOR IMMUNO AS, priority 2010, dated 2017)
Where no end group is shown, it is not given here. [ ]: non-standard residue; d: D form. Cit = NC(=O)NCCC[C@H](N)C(=O)O

Assays:
Assay in all cases: REVEAL binding assay
Settings in all cases: score as percentage of the signal generated by the positive control peptide
HLA-A1 = test system: HLA-A1
HLA-A24 = test system: HLA-A24
HLA-A29 = test system: HLA-A29
Description: (§2) HLA-A1, HLA-A2, HLA-A3, HLA-A11, HLA-A24, HLA-A29, HLA-B7, HLA-B8, HLA-B14, HLA-B15, HLA-B27, HLA-B35, HLA-B40.
(§3) The REVEAL™ binding assay determined the ability of each candidate peptide to bind to one or more MHC class I alleles and stabilizing the MHC-peptide complex. […] Detection is based on the presence or absence of the native conformation of the MHC-peptide complex. Each peptide is given a score relative to the positive control peptide, which is a known T cell epitope.

HLA-B8 = test system: HLA-B8
HLA-B14 = test system: HLA-B14
HLA-B15 = test system: HLA-B15
HLA-A11 = HLA-A11 (Homo sapiens, UniProt P04439, A114D/F33Y/S129P)
Summary of the method: (§1)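 Synthetic nonamer peptides were tested for their ability to bind and stabilize MHC class I–peptide complexes, detected by the native conformation of the complex. Each peptide is scored relative to a positive-control known T-cell epitope.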

HLA-A2 = HLA-A2 (Homo sapiens, UniProt P04439, D140Y/D185E/D98H/E176V/E277Q/G131W/G231S/I119V/I121R/I166T/I218V/N151K/N90K/P208A/P217A/Q86G/Q94H/R138H/R169H)
Summary of the method: as §1

HLA-A3 = HLA-A3 (Homo sapiens, UniProt P04439)
Summary of the method: as §1

HLA-B27 = HLA-B27 (Homo sapiens, UniProt P01889, D138H/D201E/E176V/E204Q/G107R/H137Y/K202T/N104T/N87E/Q56L/Q94K/R106L/R155S/R180L/S101D/S121N/S48T/Y140D/Y33H/Y91C)
Summary of the method: as §1

HLA-B7 = HLA-B7 (Homo sapiens, UniProt P01889)
Summary of the method: as §1

HLA-B35 = test system: HLA-B35
Description: as §2, §3

HLA-B40 = test system: HLA-B40
Summary of the method: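 Each candidate ninemer is assessed for binding and stabilizing the allele's MHC–peptide complex, detected as native conformation. Results are given relative to a positive control epitope, and an intermediate binder serves as a performance check.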

Chain of HLA-A3 (P04439 25-299): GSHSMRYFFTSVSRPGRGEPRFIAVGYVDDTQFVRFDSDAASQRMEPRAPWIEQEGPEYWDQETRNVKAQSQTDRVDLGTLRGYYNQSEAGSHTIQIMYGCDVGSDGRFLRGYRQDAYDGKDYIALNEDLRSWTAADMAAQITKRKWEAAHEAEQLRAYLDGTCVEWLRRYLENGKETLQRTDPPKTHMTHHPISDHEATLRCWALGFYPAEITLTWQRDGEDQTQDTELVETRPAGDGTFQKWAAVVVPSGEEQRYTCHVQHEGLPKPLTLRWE
Chain of HLA-A3 (P61769 21-119, further chain): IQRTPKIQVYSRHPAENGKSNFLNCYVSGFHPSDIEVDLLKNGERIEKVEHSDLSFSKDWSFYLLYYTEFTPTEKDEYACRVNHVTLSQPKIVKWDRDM
Chain of HLA-B7 (P61769 21-119): as the sequence (P61769 21-119, further chain) above
Chain of HLA-B7 (P01889 25-299): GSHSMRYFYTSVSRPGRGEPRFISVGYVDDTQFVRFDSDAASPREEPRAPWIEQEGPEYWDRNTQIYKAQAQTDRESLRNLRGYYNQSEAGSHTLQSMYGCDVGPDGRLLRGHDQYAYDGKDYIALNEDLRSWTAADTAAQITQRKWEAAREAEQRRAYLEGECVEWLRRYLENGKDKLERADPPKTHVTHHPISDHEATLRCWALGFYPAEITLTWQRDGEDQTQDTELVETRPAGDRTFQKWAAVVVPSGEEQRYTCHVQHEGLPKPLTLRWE

Row | Substance | REVEAL binding score, HLA-type A1 (HLA-A1) [%] | REVEAL binding score, HLA-type A24 (HLA-A24) [%] | REVEAL binding score, HLA-type A29 (HLA-A29) [%] | REVEAL binding score, HLA-type B8 (HLA-B8) [%] | REVEAL binding score, HLA-type B14 (HLA-B14) [%] | REVEAL binding score, HLA-type B15 (HLA-B15) [%] | REVEAL binding score, HLA-type A11 (HLA-A11) [%] | REVEAL binding score, HLA-type A2 (HLA-A2) [%] | REVEAL binding score, HLA-type A3 (HLA-A3) [%] | REVEAL binding score, HLA-type B27 (HLA-B27) [%] | REVEAL binding score, HLA-type B7 (HLA-B7) [%] | REVEAL binding score, HLA-type B35 (HLA-B35) [%] | REVEAL binding score, HLA-type B40 (HLA-B40) [%]
1 | NLPGCSFSI | 13.15 | 85.91 | 22.34 | 9.89 | 0.36 | 3.11 | 3.47 | 47.28 | 8.15 | 3.37 | 1.54 | 5.31 | 60.68
2 | NYATGNLPG | 11.16 | 1.13 | 34.26 | 9.96 | 0.79 | 6.06 | 4.69 | 3.94 | 8.65 | 2.33 | 0.51 | 6.44 | 75.28
3 | PRLGVRATR | 17.77 | 0.97 | 13.35 | 11.46 | 0.14 | 10.04 | 2.73 | 6.85 | 3.63 | 0.86 | 42.64 | 1.65 | 14.52
4 | P[Cit]IGVRAT[Cit] | 18.83 | 0.21 | 14.14 | 9.47 | 0.19 | 12.64 | 1.72 | 7.36 | 2.52 | 0.94 | 1.91 | 2.45 | 49.29
5 | QIIGGNYLI | 21.63 | 12.60 | 13.60 | 10.61 | 0.40 | 29.59 | 4.06 | 73.54 | 6.30 | 0.91 | 52.04 | 8.99 | 83.60
6 | QIVGGVYLL | 20.25 | 1.01 | 13.36 | 13.15 | 0.37 | 15.07 | 1.96 | 57.04 | 2.36 | 0.60 | 28.66 | 4.01 | 24.51
7 | RALAHGVRV | 20.77 | 0.84 | 29.73 | 18.08 | 0.46 | 11.84 | 4.45 | 8.69 | 2.51 | 6.37 | 2.55 | 6.07 | 70.26
8 | RNLGKVIDT | 18.90 | 1.04 | 10.18 | 13.80 | 0.61 | 11.79 | 6.22 | 6.42 | 3.15 | 2.73 | 2.42 | 4.40 | 48.14
9 | RNLGRVIET | 15.93 | 0.51 | 15.13 | 15.51 | 0.26 | 8.84 | 13.68 | 5.96 | 5.52 | 0.91 | 0.71 | 2.34 | 27.57
10 | RVIAHGLRL | 11.60 | 0.79 | 23.22 | 12.60 | 0.42 | 106.77 | 17.75 | 18.68 | 13.32 | 15.57 | 102.96 | 1.43 | 24.08
11 | RVIETLTSG | 11.61 | 0.96 | 15.52 | 11.83 | 0.11 | 37.99 | 3.25 | 9.82 | 2.23 | 2.32 | 0.50 | 1.90 | 32.30
12 | SRNLGKVID | 15.30 | 0.71 | 9.94 | 16.71 | 0.67 | 11.25 | 4.45 | 4.94 | 3.46 | 1.28 | 1.28 | 4.59 | 33.93
